This note sets out measurements from patent publication US8309685B2 (Celgene Avilomics Research, Inc., priority 2007, dated 2012).

Data set [1] has as its target T1, A156T mutant of the HCV NS3/4A 1b protease enzyme (Hepatitis C virus genotype 1b, UniProt P26663, A1182T).
T1 construct: 10× stocks of NS3/4A protease enzyme from Bioenza (Mountain View, Calif.); purchased Bioenza (Mountain View, Calif.)
The experiment in a line: HCV Protease FRET Assay (IC50_APP), A156T mutant. Type of data set: biochemical. Particulars: read-out: IC50_APP, HCV A156T; apparent IC50, A156T mutant.

The target of data set [2] is T2, D168A mutant of the HCV NS3/4A 1b protease enzyme (Hepatitis C virus genotype 1b, UniProt P26663, D1194A).
T2 construct: 10× stocks of NS3/4A protease enzyme from Bioenza (Mountain View, Calif.); purchased Bioenza (Mountain View, Calif.)
The data set can be described thus: HCV Protease FRET Assay (IC50), D168A mutant. Type of data set: biochemical.

For data set [3], the target named is T3, wild type HCV NS3/4A 1b protease enzyme (Hepatitis C virus genotype 1b, UniProt P26663).
T3 construct: 10× stocks of NS3/4A protease enzyme from Bioenza (Mountain View, Calif.); purchased Bioenza (Mountain View, Calif.)
The experiment in a line: HCV Protease FRET Assay (IC50_APP), wild type. The class given is biochemical. Particulars: read-out: IC50_APP, WT; apparent IC50, wild type NS3/4A 1b.

The target in data set [4] is T3, wild type HCV NS3/4A 1b protease enzyme. The experiment in a line: biochemical. The class given is biochemical.
Data set [5] has as its target T1, A156T mutant of the HCV NS3/4A 1b protease enzyme. The experiment in a line: HCV Protease FRET Assay (IC50), A156T mutant. Type of data set: biochemical. As to the method: HCV Protease FRET Assay for Wild Type and Mutated NS3/4A 1b Enzymes (IC50)
The protocol is a modified FRET-based assay (v—02) from In Vitro Resistance Studies of HCV Serine Protease Inhibitors, 2004, JBC, vol. 279, No. 17, pp 17508-17514.
10× stocks of NS3/4A protease enzyme from Bioenza (Mountain View, Calif.) and 1.13× 5-FAM/QXL™ 520 FRET peptide substrate from Anaspec (San Jose, Calif.) were prepared in 50 mM HEPES, pH 7.8, 100 mM NaCl, 5 mM DTT and 20% glycerol. 5 μL of each enzyme were pre-incubated in a Corning (#3573) 384-well, black, non-treated microtiter plate (Corning, N.Y.) for 30 min at 25° C. with a 0.5 μL volume of 50% DMSO and serially diluted compounds prepared in 50% DMSO. Protease reactions were started with the addition of 45 μL of the FRET substrate and monitored for 120 minutes at λex487/λem514 through Quad^4 monochromoters in a Synergy^4 plate reader from BioTek (Winooski, Vt.). At the conclusion of each assay, progress curves from each well were examined for linear reaction kinetics and fit statistics (R^2, absolute sum of squares). Initial velocity (0 minutes to 30+ minutes) from each reaction was determined from the slope of a plot of relative fluorescence units vs time (minutes) and then plotted against inhibitor concentration to estimate IC50 from log[Inhibitor] vs Response, Variable Slope model in GraphPad Prism from GraphPad Software (San Diego, Calif.).
The compound numbers correspond to the compound numbers in Table 3. […] ;

Data set [6] relates to cell line ET (luc-ubi-neo/ET), human Huh7 hepatoma cell line. The data set can be described thus: Method A: cytotoxicity in ET replicon cells (CytoTox-1). The class given is cell-based. Particulars: concentration decreasing cell viability by 50%, 72 hr. On the procedure:
The compounds were assayed to evaluate the antiviral activity and cytotoxicity of compounds in vitro using HCV RNA replicons. This assay used the cell line ET (luc-ubi-neo/ET), which is a human Huh7 hepatoma cell line that contains an HCV RNA replicon with a stable luciferase (Luc) reporter and three cell culture-adaptive mutations. […]
The ET cell line was grown in Dulbecco's modified essential media (DMEM), 10% fetal bovine serum (FBS), 1% penicillin-streptomycin (pen-strep), 1% glutamine, 250 μg/ml G418 in a 5% CO2 incubator at 37° C. All cell culture reagents were obtained from Mediatech (Manassas, Va.). Cells were trypsinized (1% trypsin:EDTA) and plated out at 5×10^3 cells/well in white 96-well assay plates (Costar) dedicated to cell number (cytotoxicity) or antiviral activity assessments. Drugs were added at six 3-fold concentrations each and the assay was run in DMEM, 5% FBS, 1% pen-strep, 1% glutamine. Human interferon alpha-2b (PBL Biolabs, New Brunswick, N.J.) was included in each run as a positive control compound. Cells were processed 72 hr post drug addition when the cells are still subconfluent. Antiviral activity was measured by analyzing replicon-derived luciferase activity using the Steady-Glo Luciferase Assay System (Promega, Madison, Wis.) according to manufacturer's instruction. The number of cells in each well was determined by CytoTox-1 reagent (Promega). […].
Background: Replicon systems follow genome replication, usually without infectious particles.

Data set [7] deals with T2, D168A mutant of the HCV NS3/4A 1b protease enzyme. The data set can be described thus: HCV Protease FRET Assay (IC50_APP), D168A mutant. Type of data set: biochemical. Particulars: read-out: IC50_APP, HCV D168A; apparent IC50, D168A mutant.
For data set [8], the system named is HCV RNA replicon in cell line ET (luc-ubi-neo/ET), human Huh7 hepatoma. The experiment in a line: Method A: HCV RNA replicon antiviral assay (luciferase, ET cell line). The class given is cell-based, Hepatitis C virus. The method, boiled down: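 ET replicon cells (Huh7 carrying luciferase-reporter HCV replicon) plated at 5×10^3 cells/well and exposed 72 hr to six 3-fold drug concentrations in DMEM/5% FBS. Replicon luciferase gave EC50/EC90; CytoTox-1 cell counts gave IC50 (viability); […]. Interferon alpha-2b served as positive control.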

Setting [9] is: read-out: Inhibition, HCV D168A; D168A enzyme, FRET assay.
Setting [10] is: read-out: Inhibition, WT; WT enzyme, FRET assay.
Where [11] appears, read: read-out: Inhibition, HCV A156T; A156T enzyme, FRET assay.
Where [12] appears, read: Hepatitis C virus, Huh-7, assay described in Example 22.
The mark [13] stands for this setting: Hepatitis C virus, Huh-7, Replicon, assay of Example 22, 72 hr, read-out: Inhibition, Replicon.
[14] abbreviates: Hepatitis C virus, Huh-7, assay described in Example 22, read-out: Replicon (IC50).

pIC50: −log10 of the molar value. Where two headings read alike, the source gives them in different places.

For `C=C[C@@H]1C[C@]1(NC(=O)[C@@H]1C[C@@H](Oc2cc(-c3ccccc3)nc3cc(OC)ccc23)CN1C(=O)[C@H](CCNC(=O)CCl)NC(=O)OC(C)(C)C)C(=O)NS(=O)(=O)c1ccccc1` [Compound I-4, (2S)-2-[[(1,1-dimethylethoxy)carbonyl]amino]-4-(chloroacetyl)amino-butanoyl-(4R)-4-[(7-methoxy-2-phenyl-4-quinolinyl)oxy]-L-prolyl-1-amino-2-ethenyl-N-(phenylsulfonyl)-(1R,2S)-cyclopropanecarboxamide], the pIC50 in data set [1] is 6.00 to 7.00; in data set [2] (setting [9]), 7.00 to 8.00; in data set [3], more than 8.00; in data set [4] (setting [10]), more than 8.00; in data set [5] (setting [11]), 7.00 to 8.00; in data set [7], 6.00 to 7.00. For the same molecule, the pIC50 in data set [8] (setting [13]) and in data set [8] (setting [14]) was 7.00 to 8.00 throughout. Further, in data set [6], the “Inhibition, Cytotoxicity” value is “D (IC50>1000 nM and <10,000 nM)”. The molecule further came in with an IC90 in data set [8] (setting [12]) of 100 to 1000 nM.
Regarding `C=C[C@@H]1C[C@]1(NC(=O)[C@@H]1C[C@@H](Oc2cc(-c3ccccc3)nc3cc(OC)ccc23)CN1C(=O)[C@H](CCN(C)C(=O)CCl)NC(=O)OC(C)(C)C)C(=O)NS(=O)(=O)c1ccccc1` [Compound I-9, (2S)-2-[[(1,1-dimethylethoxy)carbonyl]amino]-4-(chloroacetyl)methylamino-butanoyl-(4R)-4-[(7-methoxy-2-phenyl-4-quinolinyl)oxy]-L-prolyl-1-amino-2-ethenyl-N-(phenylsulfonyl)-(1R,2S)-cyclopropanecarboxamide], the pIC50 in data set [1] was 7.00 to 8.00; in data set [2] (setting [9]), more than 8.00; in data set [3], more than 8.00; in data set [4] (setting [10]), more than 8.00; in data set [5] (setting [11]), more than 8.00; in data set [7], 6.00 to 7.00. The pIC50 in data set [8] (setting [13]) and in data set [8] (setting [14]) was 7.00 to 8.00 each time. Besides, in data set [6], the “Inhibition, Cytotoxicity” value is “C (IC50>100 nM and ≦1000 nM)”. Moreover, in data set [8] (setting [12]), the IC90 is more than 10000 nM.
With `C=C[C@@H]1C[C@]1(NC(=O)[C@@H]1C[C@@H](Oc2cc(-c3ccccc3)nc3cc(OC)ccc23)CN1C(=O)[C@H](Cn1sc2ccccc2c1=O)NC(=O)OC(C)(C)C)C(=O)NS(=O)(=O)c1ccccc1` [Compound I-10, N-[(1,1-dimethylethoxy)carbonyl]-3-(benzoisothiazolin-3-one-2-yl)-L-alanyl-(4R)-4-[(7-methoxy-2-phenyl-4-quinolinyl)oxy]-L-prolyl-1-amino-2-ethenyl-N-(phenylsulfonyl)-(1R,2S)-cyclopropanecarboxamide], the pIC50 was 7.00 to 8.00 in data set [2] (setting [9]), more than 8.00 in data set [4] (setting [10]), 7.00 to 8.00 in data set [5] (setting [11]) and 6.00 to 7.00 in data set [8] (setting [13]). Moreover, the “Inhibition, Cytotoxicity” value in data set [6] was “D (IC50>1000 nM and <10,000 nM)”.
With `C=C[C@@H]1C[C@]1(NC(=O)[C@@H]1C[C@@H](Oc2cc(-c3ccccc3)nc3cc(OC)ccc23)CN1C(=O)[C@H](CCNC(=O)C(C)Br)NC(=O)OC(C)(C)C)C(=O)NS(=O)(=O)c1ccccc1` (stereo partly drawn) [Compound I-20], the pIC50 in data set [2] (setting [9]) was 6.00 to 7.00; in data set [4] (setting [10]) it was more than 8.00; in data set [5] (setting [11]) it was 6.00 to 7.00; in data set [8] (setting [13]) it was 6.00 to 7.00. For the same molecule, in data set [6], the “Inhibition, Cytotoxicity” value is “D (IC50>1000 nM and <10,000 nM)”.
As for `C=C[C@@H]1C[C@]1(NC(=O)[C@@H]1C[C@@H](Oc2cc(-c3ccccc3)nc3cc(OC)ccc23)CN1C(=O)[C@H](CNC(=O)C(Cl)c1ccccc1)NC(=O)OC(C)(C)C)C(=O)NS(=O)(=O)c1ccccc1` (stereo partly drawn) [Compound I-23, tert-butyl(S)-3-(2-chloro-2-phenylacetamido)-1-((2S,4R)-4-(7-methoxy-2-phenylquinolin-4-yloxy)-2-((1R,2S)-1-(phenylsulfonylcarbamoyl)-2-vinylcyclopropylcarbamoyl)pyrrolidin-1-yl)-1-oxopropan-2-ylcarbamate], the pIC50 was 6.00 to 7.00 in data set [2] (setting [9]), more than 8.00 in data set [4] (setting [10]), 5.00 to 6.00 in data set [5] (setting [11]) and 6.00 to 7.00 in data set [8] (setting [13]). The “Inhibition, Cytotoxicity” value in data set [6] was “D (IC50>1000 nM and <10,000 nM)”.
As for `C=C[C@@H]1C[C@]1(NC(=O)[C@@H]1C[C@@H](Oc2cc(-c3ccccc3)nc3cc(OC)ccc23)CN1C(=O)[C@H](CN(C)C(=O)CCl)NC(=O)OC(C)(C)C)C(=O)NS(=O)(=O)c1ccccc1` [Compound I-29, tert-butyl-(S)-3-(2-chloro-N-methylacetamido)-1-((2S,4R)-4-(7-methoxy-2-phenylquinolin-4-yloxy)-2-((1R,2S)-1-(phenylsulfonylcarbamoyl)-2-vinylcyclopropylcarbamoyl)pyrrolidin-1-yl)-1-oxopropan-2-ylcarbamate], the pIC50 in data set [2] (setting [9]) is more than 8.00; in data set [4] (setting [10]), more than 8.00; in data set [5] (setting [11]), more than 8.00; in data set [8] (setting [13]), 7.00 to 8.00. The “Inhibition, Cytotoxicity” value in data set [6] is “C (IC50>100 nM and ≦1000 nM)”.
With `C=C[C@@H]1C[C@]1(NC(=O)[C@@H]1C[C@@H](Oc2cc(-c3ccccc3)nc3cc(OC)ccc23)CN1C(=O)[C@H](CNC(=O)CC)NC(=O)OC(C)(C)C)C(=O)NS(=O)(=O)c1ccccc1` [I^R-3, N-[(1,1-dimethylethoxy)carbonyl]-3-[(propionyl)amino]-L-alanyl-(4R)-4-[(7-methoxy-2-phenyl-4-quinolinyl)oxy]-L-prolyl-1-amino-2-ethenyl-N-(phenylsulfonyl)-(1R,2S)-cyclopropanecarboxamide], the pIC50 in data set [2] (D168A enzyme, FRET assay; read-out: Inhibition, HCV D168A) is 6.00 to 7.00; in data set [4] (WT enzyme, FRET assay; read-out: Inhibition, WT) it was more than 8.00; in data set [5] (A156T enzyme, FRET assay; read-out: Inhibition, HCV A156T), 7.00 to 8.00; in data set [8] (Replicon, assay of Example 22, 72 hr, read-out: Inhibition, Replicon), 5.00 to 6.00. Moreover, in data set [6], the “Inhibition, Cytotoxicity” value is recorded as “E (IC50≧10,000 nM)”.

The term IC90 denotes the concentration needed for an effect of 90%. The low end stands for an effect from little substance, the high end for a need for much substance.
